Data from US6455250B1, “Endonuclease compositions and methods of use” (The Regents of the University of California, priority 1997, dated 2002).
“Also recorded” adds a separate entry of the source. Blank lines part the entries; values can stand above or below the molecule they belong to.

Columns and labels:
Endo-SR = molecular target: T1, Endo-SR (Mus musculus, UniProt P56542); assay: Effect of M^2+ species and EDTA on murine Endo-SR activity (Example 1, FIG. 3B); type: biochemical
T1 construct: All nuclease assays were performed with Fraction IV enzyme (see below) as the source for Endo-SR activity, unless otherwise specified; endogenous in cells; host or cells: murine 38B9 pre-B cell line, nuclear extract, chromatographic Fraction IV (BioRex 70, 300 mM NaCl step)
T1 sequence (P56542 20-353): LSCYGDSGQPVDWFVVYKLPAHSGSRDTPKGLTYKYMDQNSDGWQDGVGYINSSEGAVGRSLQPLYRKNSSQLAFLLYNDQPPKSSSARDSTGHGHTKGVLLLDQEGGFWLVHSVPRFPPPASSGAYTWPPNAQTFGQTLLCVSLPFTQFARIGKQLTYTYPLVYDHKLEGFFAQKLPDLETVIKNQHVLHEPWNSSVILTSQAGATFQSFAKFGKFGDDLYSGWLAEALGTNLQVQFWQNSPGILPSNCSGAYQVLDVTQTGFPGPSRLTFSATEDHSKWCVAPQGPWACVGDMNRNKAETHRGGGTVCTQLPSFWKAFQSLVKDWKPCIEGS
Description: FIG. 3B. Effect of M^2+ species on Endo-SR activity. Nuclease assays were performed as previously described but with varied concentrations of different M^2+ species (or EDTA) replacing the standard (5 mM Mg^2+) assay condition. Activity values shown are expressed as percentages of an activity detected in a control assay (0 μM) containing no added M^2+ species.
Endonuclease assays were conducted in 10 μl reaction volumes containing 10 mM bis-Tris (pH6.5), 5 mM MgCl2, ˜250 pmoles of an end-labeled (^32P) DNA substrate, 1 μg of calf-thymus DNA, and 1 μl of an active Endo-SR fraction. […] All nuclease assays were performed with Fraction IV enzyme (see below) as the source for Endo-SR activity, unless otherwise specified. Nuclease assays performed for biochemical analysis of Endo-SR activity were conducted as described except for the addition or substitution of the test material. Reactions were incubated at 37° C. for 30 min, then mixed with an equal volume of formamide dye (Ausubel et al., 1987) and heated to 95° C. for 5 min prior to electrophoresis on an appropriate percentage (8-15%) sequencing gel. After electrophoresis, these gels were transferred to Whatman paper, dried, and exposed to film for 12-48 h. All detected cleavage products were compared to adjacent Maxam-Gilbert sequencing reactions, and adjusted one nucleotide 3′ to compensate for the removed base (Ausubel et al., 1987). After autoradiographic analysis, endonuclease activity was assayed by scintillation counting of intact substrate and specific cleavage products excised from the dried gel. End-labeled DNA substrates were prepared according to previously described methods (Hope et al., 1986).

murine Endo-SR = molecular target: T2, murine Endo-SR (Mus musculus, UniProt P56542); assay: Effect of M^2+ cofactors and EDTA on murine Endo-SR activity (Example 2, FIG. 2B); type: biochemical; details: ≦50 μM
T2 construct: Nuclease assays were performed with purified bovine nuclease (Fraction V) and partially purified murine Endo-SR (Lyon et al., 1996); endogenous in cells
T2 sequence (P56542 20-353): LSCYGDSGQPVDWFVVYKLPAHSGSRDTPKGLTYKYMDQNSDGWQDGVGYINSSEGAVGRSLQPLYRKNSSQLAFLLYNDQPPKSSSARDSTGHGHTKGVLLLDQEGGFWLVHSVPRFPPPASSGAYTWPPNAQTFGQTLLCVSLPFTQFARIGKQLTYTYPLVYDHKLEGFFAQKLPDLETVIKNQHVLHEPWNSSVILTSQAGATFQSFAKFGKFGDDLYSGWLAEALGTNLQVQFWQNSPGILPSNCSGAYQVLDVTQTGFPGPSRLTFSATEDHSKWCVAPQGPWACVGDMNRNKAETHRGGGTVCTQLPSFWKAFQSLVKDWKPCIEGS
Description: (§1) FIG. 2B. Effect of various common divalent metal cation (M^2+) species on Endo-SR activity. Nuclease reaction buffer used in these assays contained no Mg^2+, and nuclease reactions were adjusted to various M or EDTA concentrations. Nuclease assays performed with supplemental M^2+ or EDTA were pre-incubated for 30 min on ice prior to addition of the DNA substrate. Specific endonuclease activity values detected in these assays were normalized against nuclease reactions, which contained no supplemental M^2+ or EDTA, and expressed as percentages of this reaction activity. Bovine and murine enzyme activities are represented by open and closed symbols, respectively.
(§2) Endo-SR activity was assayed in 10 μl reactions containing 50 mM sodium acetate (pH 5.5), ˜150 mM NaCl, 0.5 mM MgCl2, ˜250 fmoles of end-labeled DNA substrate (see below), 1 μg sheared salmon sperm DNA, and 1 μl of a diluted Endo-SR fraction. All reactions performed with bovine Endo-SR used Fraction V material (Table 2). Murine Endo-SR used in these assays was purified essentially as previously described (Lyon et al., 1996). All nuclease assays were incubated at 37° C. for 30 min, then mixed with 10 μl of formamide dye and denatured at 95° C. for 5 min prior to size-fractionation on standard sequencing gels. Endo-SR activity values (fmol/min) were determined by quantitation of the radioactivity present in specific nuclease cleavage products and intact substrate (negative control) excised from the dried gel (Lyon et al., 1996). Nuclease assays used to characterize the activity parameters of murine and bovine Endo-SR were performed essentially as previously described (Lyon et al., 1996).

bovine Endo-SR = molecular target: T3, bovine Endo-SR (Bos taurus, UniProt P56541); assay: Effect of M^2+ cofactors and EDTA on bovine Endo-SR activity (FIG. 2B); type: biochemical; details: ≦50 μM
T3 construct: Nuclear extracts for enzyme purification were generated from bovine spleen; from tissue; host or cells: bovine spleen nuclear extract, Fraction V (Superose-12)
T3 sequence (P56541 20-365): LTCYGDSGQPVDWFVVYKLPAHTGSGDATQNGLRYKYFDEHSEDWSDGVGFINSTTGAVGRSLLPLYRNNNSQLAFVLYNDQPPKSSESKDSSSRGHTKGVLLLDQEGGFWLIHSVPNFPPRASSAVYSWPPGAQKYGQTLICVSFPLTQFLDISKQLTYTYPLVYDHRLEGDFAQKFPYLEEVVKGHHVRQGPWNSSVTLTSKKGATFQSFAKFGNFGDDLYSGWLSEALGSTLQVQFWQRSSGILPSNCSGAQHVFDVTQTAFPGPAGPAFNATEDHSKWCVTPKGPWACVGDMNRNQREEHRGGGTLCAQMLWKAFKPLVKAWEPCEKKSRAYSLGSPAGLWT
Description: as §1, §2

switch recombination = details: without demonstrably affecting cell proliferation or CH gene transcription; Loh et al., 1994a, 1995; cited from earlier work
[1] = molecular target: the molecule itself; assay: native size exclusion chromatography (~35 000) compared with SDS-PAGE (Mr ~32 000)

inhibition of Endo-SR activity (Endo-SR; 50 μM): ~50% | inhibition of Endo-SR activity (Endo-SR; 500 μM): ~95% | effect on nuclease activity at low concentrations (murine Endo-SR): significant degree of enzyme inhibition | effect on nuclease activity at low concentrations (bovine Endo-SR): significant degree of enzyme inhibition
Molecule: [Zn+2] [Zn^2+]

inhibition of Endo-SR activity (Endo-SR; 5 mM): ~40% | effect on nuclease activity at low concentrations (murine Endo-SR): relatively resistant | effect on nuclease activity at low concentrations (bovine Endo-SR): relatively resistant
Molecule: O=C(O)CN(CCN(CC(=O)O)CC(=O)O)CC(=O)O [EDTA]
effect on Endo-SR activity (Endo-SR; 50 mM): completely inhibited; also recorded: complete inhibition

effect on Endo-SR activity (Endo-SR; 500 μM): significantly enhanced
Molecule: [Ca+2] [Ca^2+]

The remaining lines, values behind:

Molecule: [Mg+2] [Mg^2+]
effect on Endo-SR activity (Endo-SR; 500 μM): significantly enhanced; also recorded: maximal activity | effect on nuclease activity at low concentrations (murine Endo-SR): significant degree of enzyme inhibition | effect on nuclease activity at low concentrations (bovine Endo-SR): significant degree of enzyme inhibition

Molecule: O=C([O-])c1cc(=O)c2c(OCC(O)COc3cccc4oc(C(=O)[O-])cc(=O)c34)cccc2o1.[Na+].[Na+] [disodium cromoglycolate]
effect on switch rearrangement (switch recombination): dramatically repress switch rearrangement

Molecule: CCCc1c2oc(C(=O)O)cc(=O)c2cc2c(=O)cc(C(=O)O)n(CC)c12 [nedocromil sodium]
effect on switch rearrangement (switch recombination): dramatically repress switch rearrangement

B1: purified bovine Endo-SR (Fraction V, from bovine spleen nuclear extract) (enzyme, UniProt P56541 20-365, looked up)
chain: LTCYGDSGQPVDWFVVYKLPAHTGSGDATQNGLRYKYFDEHSEDWSDGVGFINSTTGAVGRSLLPLYRNNNSQLAFVLYNDQPPKSSESKDSSSRGHTKGVLLLDQEGGFWLIHSVPNFPPRASSAVYSWPPGAQKYGQTLICVSFPLTQFLDISKQLTYTYPLVYDHRLEGDFAQKFPYLEEVVKGHHVRQGPWNSSVTLTSKKGATFQSFAKFGNFGDDLYSGWLSEALGSTLQVQFWQRSSGILPSNCSGAQHVFDVTQTAFPGPAGPAFNATEDHSKWCVTPKGPWACVGDMNRNQREEHRGGGTLCAQMLWKAFKPLVKAWEPCEKKSRAYSLGSPAGLWT
notes: Native enzyme purified to homogeneity; also called bovine Endo-SR nuclease; Mr ~32 000 protein species
binding result [1]: no binding
